How the values were obtained:
[1] = wn = mass fraction of the nth substance listed; conditions: for surface tension liquid-gas: Maximal bubble pressure; for mass density: 100 kPa, Liquid, Vibrating tube method
[2] = refractive index (Na D-line) (dimensionless); wn = mass fraction of the nth substance listed; conditions: 100 kPa, Liquid, Standard Abbe refractometry

CCC[n+]1ccccc1.N#C[N-]C#N [1-propylpyridinium dicyanamide] + O
Conditions | mass density [kg/m3] | refractive index | surface tension liquid-gas [mN/m]
[1], 303.15 K, w2 = 0.00121 | 1086.72 | – | –
[1], 303.15 K, w2 = 0.00205 | – | – | 58.1
[1], 303.15 K, w2 = 0.00271 | 1086.48 | – | –
[1], 303.15 K, w2 = 0.0035 | – | – | 58.4
[1], 303.15 K, w2 = 0.00412 | 1086.25 | – | –
[1], 303.15 K, w2 = 0.005 | – | – | 58.7
[1], 303.15 K, w2 = 0.00573 | 1085.98 | – | –
[1], 303.15 K, w2 = 0.00649 | – | – | 59
[1], 303.15 K, w2 = 0.00724 | 1085.74 | – | –
[1], 303.15 K, w2 = 0.00802 | – | – | 59.3
[1], 308.15 K, w2 = 0.00121 | 1083.57 | – | –
[1], 308.15 K, w2 = 0.00205 | – | – | 57.8
[1], 308.15 K, w2 = 0.00271 | 1083.3 | – | –
[1], 308.15 K, w2 = 0.0035 | – | – | 58.1
[1], 308.15 K, w2 = 0.00412 | 1083.06 | – | –
[1], 308.15 K, w2 = 0.005 | – | – | 58.4
[1], 308.15 K, w2 = 0.00573 | 1082.77 | – | –
[1], 308.15 K, w2 = 0.00649 | – | – | 58.7
[1], 308.15 K, w2 = 0.00724 | 1082.49 | – | –
[1], 308.15 K, w2 = 0.00802 | – | – | 59
[1], 313.15 K, w2 = 0.00121 | 1080.46 | – | –
[1], 313.15 K, w2 = 0.00205 | – | – | 57.4
[1], 313.15 K, w2 = 0.00271 | 1080.2 | – | –
[1], 313.15 K, w2 = 0.0035 | – | – | 57.8
[1], 313.15 K, w2 = 0.00412 | 1079.95 | – | –
[1], 313.15 K, w2 = 0.005 | – | – | 58.1
[1], 313.15 K, w2 = 0.00573 | 1079.65 | – | –
[1], 313.15 K, w2 = 0.00649 | – | – | 58.4
[1], 313.15 K, w2 = 0.00724 | 1079.36 | – | –
[1], 313.15 K, w2 = 0.00802 | – | – | 58.7
[1], 318.15 K, w2 = 0.00121 | 1077.36 | – | –
[1], 318.15 K, w2 = 0.00205 | – | – | 57.1
[1], 318.15 K, w2 = 0.00271 | 1077.12 | – | –
[1], 318.15 K, w2 = 0.0035 | – | – | 57.5
[1], 318.15 K, w2 = 0.00412 | 1076.87 | – | –
[1], 318.15 K, w2 = 0.005 | – | – | 57.8
[1], 318.15 K, w2 = 0.00573 | 1076.55 | – | –
[1], 318.15 K, w2 = 0.00649 | – | – | 58.1
[1], 318.15 K, w2 = 0.00724 | 1076.27 | – | –
[1], 318.15 K, w2 = 0.00802 | – | – | 58.4
[1], 323.15 K, w2 = 0.00121 | 1074.29 | – | –
[1], 323.15 K, w2 = 0.00205 | – | – | 56.9
[1], 323.15 K, w2 = 0.00271 | 1074.02 | – | –
[1], 323.15 K, w2 = 0.0035 | – | – | 57.2
[1], 323.15 K, w2 = 0.00412 | 1073.79 | – | –
[1], 323.15 K, w2 = 0.005 | – | – | 57.5
[1], 323.15 K, w2 = 0.00573 | 1073.46 | – | –
[1], 323.15 K, w2 = 0.00649 | – | – | 57.8
[1], 323.15 K, w2 = 0.00724 | 1073.19 | – | –
[1], 323.15 K, w2 = 0.00802 | – | – | 58.2
[1], 328.15 K, w2 = 0.00121 | 1071.24 | – | –
[1], 328.15 K, w2 = 0.00205 | – | – | 56.5
[1], 328.15 K, w2 = 0.00271 | 1070.97 | – | –
[1], 328.15 K, w2 = 0.0035 | – | – | 56.8
[1], 328.15 K, w2 = 0.00412 | 1070.72 | – | –
[1], 328.15 K, w2 = 0.005 | – | – | 57.2
[1], 328.15 K, w2 = 0.00573 | 1070.41 | – | –
[1], 328.15 K, w2 = 0.00649 | – | – | 57.5
[1], 328.15 K, w2 = 0.00724 | 1070.15 | – | –
[1], 328.15 K, w2 = 0.00802 | – | – | 57.8
[1], 333.15 K, w2 = 0.00121 | 1068.17 | – | –
[1], 333.15 K, w2 = 0.00205 | – | – | 56.2
[1], 333.15 K, w2 = 0.00271 | 1067.92 | – | –
[1], 333.15 K, w2 = 0.0035 | – | – | 56.5
[1], 333.15 K, w2 = 0.00412 | 1067.67 | – | –
[1], 333.15 K, w2 = 0.005 | – | – | 56.9
[1], 333.15 K, w2 = 0.00573 | 1067.34 | – | –
[1], 333.15 K, w2 = 0.00649 | – | – | 57.2
[1], 333.15 K, w2 = 0.00724 | 1067.04 | – | –
[1], 333.15 K, w2 = 0.00802 | – | – | 57.6
[1], 338.15 K, w2 = 0.00121 | 1065.15 | – | –
[1], 338.15 K, w2 = 0.00205 | – | – | 55.8
[1], 338.15 K, w2 = 0.00271 | 1064.88 | – | –
[1], 338.15 K, w2 = 0.0035 | – | – | 56.1
[1], 338.15 K, w2 = 0.00412 | 1064.64 | – | –
[1], 338.15 K, w2 = 0.005 | – | – | 56.5
[1], 338.15 K, w2 = 0.00573 | 1064.3 | – | –
[1], 338.15 K, w2 = 0.00649 | – | – | 56.8
[1], 338.15 K, w2 = 0.00724 | 1063.99 | – | –
[1], 338.15 K, w2 = 0.00802 | – | – | 57.1
[2], 303.15 K, w2 = 0.00205 | – | 1.5386 | –
[2], 303.15 K, w2 = 0.00353 | – | 1.5384 | –
[2], 303.15 K, w2 = 0.00496 | – | 1.5381 | –
[2], 303.15 K, w2 = 0.00639 | – | 1.5378 | –
[2], 303.15 K, w2 = 0.0079 | – | 1.5375 | –
[2], 308.15 K, w2 = 0.00205 | – | 1.537 | –
[2], 308.15 K, w2 = 0.00353 | – | 1.5368 | –
[2], 308.15 K, w2 = 0.00496 | – | 1.5365 | –
[2], 308.15 K, w2 = 0.00639 | – | 1.5362 | –
[2], 308.15 K, w2 = 0.0079 | – | 1.5359 | –
[2], 313.15 K, w2 = 0.00205 | – | 1.5352 | –
[2], 313.15 K, w2 = 0.00353 | – | 1.5349 | –
[2], 313.15 K, w2 = 0.00496 | – | 1.5347 | –
[2], 313.15 K, w2 = 0.00639 | – | 1.5344 | –
[2], 313.15 K, w2 = 0.0079 | – | 1.5341 | –
[2], 318.15 K, w2 = 0.00205 | – | 1.5338 | –
[2], 318.15 K, w2 = 0.00353 | – | 1.5335 | –
[2], 318.15 K, w2 = 0.00496 | – | 1.5332 | –
[2], 318.15 K, w2 = 0.00639 | – | 1.5329 | –
[2], 318.15 K, w2 = 0.0079 | – | 1.5327 | –
[2], 323.15 K, w2 = 0.00205 | – | 1.5325 | –
[2], 323.15 K, w2 = 0.00353 | – | 1.5322 | –
[2], 323.15 K, w2 = 0.00496 | – | 1.5319 | –
[2], 323.15 K, w2 = 0.00639 | – | 1.5316 | –
[2], 323.15 K, w2 = 0.0079 | – | 1.5313 | –
[2], 328.15 K, w2 = 0.00205 | – | 1.5308 | –
[2], 328.15 K, w2 = 0.00353 | – | 1.5306 | –
[2], 328.15 K, w2 = 0.00496 | – | 1.5303 | –
[2], 328.15 K, w2 = 0.00639 | – | 1.5301 | –
[2], 328.15 K, w2 = 0.0079 | – | 1.5298 | –
[2], 333.15 K, w2 = 0.00205 | – | 1.529 | –
[2], 333.15 K, w2 = 0.00353 | – | 1.5288 | –
[2], 333.15 K, w2 = 0.00496 | – | 1.5286 | –
[2], 333.15 K, w2 = 0.00639 | – | 1.5283 | –
[2], 333.15 K, w2 = 0.0079 | – | 1.5281 | –
[2], 338.15 K, w2 = 0.00205 | – | 1.5273 | –
[2], 338.15 K, w2 = 0.00353 | – | 1.527 | –
[2], 338.15 K, w2 = 0.00496 | – | 1.5268 | –
[2], 338.15 K, w2 = 0.00639 | – | 1.5265 | –
[2], 338.15 K, w2 = 0.0079 | – | 1.5263 | –

Reference: the NIST ThermoML archive (doi:10.1016/j.jct.2015.11.023)
